The values that follow come from ChEMBL document CHEMBL1201862, “PubChem BioAssay data set” (2004).

Where “and” joins values, the source holds several entries; their conditions need not be identical. Equal entries are not always repeated. Calls of active or inactive are those of the source. Where only a bound is given, the exact number is not on record here.

One test addresses Cytochrome P450 2C19 (Homo sapiens, UniProt P33261). As to the kind of experiment: Cytochrome panel assay with activity outcomes. Panel member name: p450-cyp2c19 Compounds with AC50 equal or less than 10 uM are considered active. The test is classed as functional. As to conditions: read-out: AC50.
The target in the next test is Cytochrome P450 2C9 (Homo sapiens, UniProt P11712).
Chain of Cytochrome P450 2C9 (P11712 whole entry): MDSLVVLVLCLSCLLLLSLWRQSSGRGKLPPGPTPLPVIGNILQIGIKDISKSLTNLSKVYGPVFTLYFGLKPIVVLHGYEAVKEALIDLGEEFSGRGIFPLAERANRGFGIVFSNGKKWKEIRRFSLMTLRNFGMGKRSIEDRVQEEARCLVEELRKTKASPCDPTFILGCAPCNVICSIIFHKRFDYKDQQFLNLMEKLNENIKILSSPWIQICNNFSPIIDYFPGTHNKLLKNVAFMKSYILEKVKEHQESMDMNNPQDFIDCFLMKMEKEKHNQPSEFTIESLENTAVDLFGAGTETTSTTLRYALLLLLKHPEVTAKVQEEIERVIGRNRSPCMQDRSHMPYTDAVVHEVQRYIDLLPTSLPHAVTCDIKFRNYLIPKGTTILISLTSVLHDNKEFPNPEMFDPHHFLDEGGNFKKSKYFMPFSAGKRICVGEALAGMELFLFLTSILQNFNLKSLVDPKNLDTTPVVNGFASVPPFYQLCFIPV
The target of test [1] is T1, Corticotropin-releasing factor receptor 2/Corticotropin-releasing factor-binding protein (Homo sapiens, UniProt P24387+Q13324).
T1 sequence (Q13324 whole entry): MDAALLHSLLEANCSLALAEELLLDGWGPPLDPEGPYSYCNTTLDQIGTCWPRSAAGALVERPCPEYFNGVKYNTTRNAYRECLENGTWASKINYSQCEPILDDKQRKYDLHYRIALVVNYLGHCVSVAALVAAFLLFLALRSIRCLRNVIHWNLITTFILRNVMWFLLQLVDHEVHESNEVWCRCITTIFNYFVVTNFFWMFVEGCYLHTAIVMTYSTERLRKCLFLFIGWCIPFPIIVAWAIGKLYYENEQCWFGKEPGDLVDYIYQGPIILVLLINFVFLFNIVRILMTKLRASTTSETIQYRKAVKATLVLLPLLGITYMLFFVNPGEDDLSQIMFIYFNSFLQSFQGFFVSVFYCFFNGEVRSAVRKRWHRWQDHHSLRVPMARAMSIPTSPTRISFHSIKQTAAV
T1 sequence (P24387 whole entry): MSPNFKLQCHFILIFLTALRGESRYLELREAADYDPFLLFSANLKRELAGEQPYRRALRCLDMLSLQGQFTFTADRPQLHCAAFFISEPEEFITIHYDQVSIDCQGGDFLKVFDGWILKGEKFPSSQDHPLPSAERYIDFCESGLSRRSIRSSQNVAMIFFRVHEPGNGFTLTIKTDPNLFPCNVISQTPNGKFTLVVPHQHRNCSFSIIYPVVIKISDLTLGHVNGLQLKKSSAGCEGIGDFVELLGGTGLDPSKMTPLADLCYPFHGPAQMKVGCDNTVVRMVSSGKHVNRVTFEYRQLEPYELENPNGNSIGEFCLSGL
As to the kind of experiment: activators of CRF receptor 2 with binding protein – uHTS hits, confirmation (AID 602473). The test is classed as functional. The conditions noted are these: read-out: EC50_Mean.

In another test the test system is H9c2. As to the kind of experiment: cells. The format is functional, cell-based. As to conditions: Rattus norvegicus, H9c2, Myocardium.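 Also: confirmatory concentration-response retest of ultra-high-throughput screening hits for modulation of myocardial damage; cell death induced by hydrogen peroxide oxidative stress; compound pretreatment for 60 min then peroxide exposure for 2 h; potency is for protecting the cells against peroxide damage rather than for killing them.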
In another test the target is Cytochrome P450 3A4 (Homo sapiens, UniProt P08684).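 Also: CYP3A4 tested as one member of a cytochrome P450 panel screen.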
Chain of Cytochrome P450 3A4 (P08684 whole entry): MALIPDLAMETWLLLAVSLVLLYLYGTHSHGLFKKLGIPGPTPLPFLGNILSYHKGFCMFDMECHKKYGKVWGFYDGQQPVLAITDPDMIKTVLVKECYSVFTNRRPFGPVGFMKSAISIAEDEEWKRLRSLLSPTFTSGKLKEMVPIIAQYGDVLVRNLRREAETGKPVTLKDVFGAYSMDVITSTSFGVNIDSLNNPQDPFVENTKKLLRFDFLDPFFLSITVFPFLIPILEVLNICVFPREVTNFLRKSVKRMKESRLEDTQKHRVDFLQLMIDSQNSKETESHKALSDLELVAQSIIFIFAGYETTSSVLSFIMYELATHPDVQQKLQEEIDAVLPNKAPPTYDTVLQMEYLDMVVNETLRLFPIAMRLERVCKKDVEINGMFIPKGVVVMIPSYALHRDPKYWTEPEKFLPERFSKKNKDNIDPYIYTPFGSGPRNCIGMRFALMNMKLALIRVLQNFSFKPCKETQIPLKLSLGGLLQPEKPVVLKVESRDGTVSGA
The target of the next test is T2, Cytochrome P450 1A2 (Homo sapiens, UniProt P05177).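 Also: PubChem cytochrome P450 panel assay, CYP1A2 panel member.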
T2 sequence (P05177 whole entry): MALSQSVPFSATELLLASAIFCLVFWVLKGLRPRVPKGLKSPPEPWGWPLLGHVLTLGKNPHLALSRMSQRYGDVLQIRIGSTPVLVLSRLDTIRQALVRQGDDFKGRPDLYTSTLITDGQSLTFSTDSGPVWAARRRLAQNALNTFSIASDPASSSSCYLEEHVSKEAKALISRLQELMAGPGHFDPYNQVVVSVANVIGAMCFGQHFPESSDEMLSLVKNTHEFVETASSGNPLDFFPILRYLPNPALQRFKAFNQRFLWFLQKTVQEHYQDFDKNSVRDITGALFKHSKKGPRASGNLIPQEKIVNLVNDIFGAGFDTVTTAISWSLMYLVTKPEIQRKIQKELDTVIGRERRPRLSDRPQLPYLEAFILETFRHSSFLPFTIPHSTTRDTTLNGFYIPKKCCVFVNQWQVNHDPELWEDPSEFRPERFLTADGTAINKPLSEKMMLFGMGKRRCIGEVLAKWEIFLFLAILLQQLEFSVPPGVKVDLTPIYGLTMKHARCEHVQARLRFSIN

Chain of Cytochrome P450 2C19 (P33261 whole entry): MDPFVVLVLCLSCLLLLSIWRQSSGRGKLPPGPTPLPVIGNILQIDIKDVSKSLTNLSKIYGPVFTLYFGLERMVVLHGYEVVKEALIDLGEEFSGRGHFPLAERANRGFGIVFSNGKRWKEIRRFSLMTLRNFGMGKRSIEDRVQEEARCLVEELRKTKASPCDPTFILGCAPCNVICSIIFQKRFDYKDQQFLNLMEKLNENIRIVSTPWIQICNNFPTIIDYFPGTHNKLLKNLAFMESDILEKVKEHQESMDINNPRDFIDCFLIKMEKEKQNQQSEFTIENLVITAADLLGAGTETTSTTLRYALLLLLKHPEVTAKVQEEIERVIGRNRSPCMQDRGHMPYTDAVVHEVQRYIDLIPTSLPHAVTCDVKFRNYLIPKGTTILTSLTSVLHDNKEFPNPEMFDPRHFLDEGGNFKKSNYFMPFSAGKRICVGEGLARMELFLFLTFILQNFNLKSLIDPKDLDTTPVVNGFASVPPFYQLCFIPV

For `COCCCn1c(=S)[nH]c2ncccc2c1=O`, the AC50 on Cytochrome P450 2C19 is 0.501 µM (inconclusive); at Cytochrome P450 2C9, 0.00562 µM (inconclusive).

Turning to `CN(C)C(=O)COC(=O)[C@H](Cc1ccccc1)NC(=O)c1ccco1`, the EC50 in test [1] was 19.4 µM (active).

With `COc1ccc(NC(=O)CCCc2nc(O)c3ccccc3n2)cc1Cl`, the IC50 with H9c2 was > 79 µM (inactive).

Take `OCCSCc1cc(Cl)cc(Cl)c1O`: on Cytochrome P450 2C9, the half-maximal activity concentration (AC50) is 3.98 µM (inconclusive).

`COc1ccc(OC)c(/C=N/Nc2nncn2/N=C/c2cc(OC)ccc2OC)c1`: in the test on H9c2, the IC50 was > 79 µM (inactive).

`COc1ccc(S(=O)(=O)N(CC(=O)NCC2CCCO2)c2ccc(F)cc2)cc1OC` (configuration not stated): the concentration at half-maximal activity (AC50) at Cytochrome P450 2C19 and on Cytochrome P450 2C9 was 10 µM (inconclusive) in each case.

As to `COc1ccc(C(=O)NN/C=C/C(=O)c2ccc(Br)cc2)cc1`, the IC50 with H9c2 was > 79 µM (inactive).

With `COc1cccc(N2CCN(C(=O)Nc3ccc4c(c3)NC(=O)CO4)CC2)c1`, the AC50 on Cytochrome P450 2C9 is 12.6 µM (inconclusive).

As to `CCCCCC(=O)NC(=S)NNC(=O)c1ccc([N+](=O)[O-])cc1`, the EC50 in test [1] is 5.19 µM (active).

As to `CCN(CC)S(=O)(=O)c1cccc(C(=O)N/N=C/c2ccccn2)c1`, the IC50 in the test on H9c2 is > 79 µM (inactive).

With `N#CCCn1cc(/C=N/O)c(-c2ccc(Cl)cc2)n1`, on Cytochrome P450 2C9, the AC50 is 15.8 µM (inconclusive).

For the compound `COc1ccc(NC(=O)CN(C)C(=O)Cc2nnc(O)c3ccccc23)cc1`, the half-inhibitory concentration (IC50) in the test on H9c2 was 19.6 µM (active).

In the case of `COc1ccc(-c2csc(NC(=O)c3ccc(OCC(=O)N4CCOCC4)c(OC)c3)n2)cc1OC`, the IC50 with H9c2 is > 79 µM (inactive).

For the compound `N#C/C(=C\NC(=S)c1ccncc1)c1nc2ccccc2s1`, the concentration at half-maximal activity (AC50) is 6.31 µM (inconclusive) on Cytochrome P450 2C9 and 2.51 µM (inconclusive) at Cytochrome P450 3A4.

On to `Cc1ccc(C(=O)N/C(=C\c2ccc(-c3ccc([N+](=O)[O-])cc3)o2)C(=O)NC2CCS(=O)(=O)C2)cc1` (configuration not stated), for which the EC50 in test [1] was 8.22 µM (active).

Regarding `C=CCN1C(=O)c2cccc3c(N4CCCCC4)ccc(c23)C1=O`, in test [1], the EC50 was 5.47 µM (active).

For the compound `CC(C)NC(=Nc1ccc(Cl)cc1)c1cccnc1`, the AC50 on Cytochrome P450 2C19 was 6.31 µM (inconclusive); at Cytochrome P450 3A4, 22.4 µM (inconclusive).

With `CCCCn1c(SC(C)C(N)=O)nc2cc(C(=O)OC)ccc2c1=O` (configuration not stated), the AC50 on Cytochrome P450 2C19 is 3.55 µM (inconclusive); on Cytochrome P450 2C9, 8.91 µM (inconclusive).

Turning to `CS(=O)(=O)N1CCC2(CCCN(C(=O)Nc3cccc(C#N)c3)C2)CC1`, the AC50 at Cytochrome P450 3A4 is 25.1 µM (inconclusive).

Regarding `COC(=O)[C@@H]1[C@@H](O)[C@@]2(O)c3c(OC)cc(OC)cc3O[C@@]2(c2ccc(OC)cc2)[C@H]1c1ccccc1`, the concentration at half-maximal activity (AC50) at Cytochrome P450 3A4 was 10 µM (inconclusive).

`CCC/C=C(\CCC)C(NS(=O)(=O)c1ccc(C(F)(F)F)cc1)c1ccc(-c2ccccc2)cc1` (configuration not stated): the AC50 at Cytochrome P450 3A4 was 3.98 µM (inconclusive).

On to `Cc1cc(C)cc(-n2nnnc2-c2cn(C)nc2C(F)(F)F)c1`, for which, on Cytochrome P450 3A4, the AC50 was 15.8 µM (inconclusive).

Regarding `N#Cc1c(-c2ccc(F)cc2)cc(-c2ccccc2)nc1SCC(=O)NCC(=O)O`, the EC50 in test [1] is 5.47 µM (active).

Consider `COc1cc(C(=O)Nc2nc(OC)c(-c3ccccc3)c(OC)n2)cc(OC)c1OC`, for which the IC50 in the test with H9c2 was > 79 µM (inactive).

Consider `Cc1ccc(-c2nnc(N(C)C(=O)c3cccnc3)s2)cc1`, for which the half-maximal activity concentration (AC50) at Cytochrome P450 1A2 was 10 µM (inconclusive); on Cytochrome P450 2C19, 3.16 µM (inconclusive); at Cytochrome P450 3A4 it was 17.8 µM (inconclusive).

Turning to `Cc1ncc(CO)c2c1Oc1nc(-c3ccccc3)nc(SCC(=O)N3CCCCC3)c1C2`, the IC50 in the test on H9c2 was > 79 µM (inactive).

As for `COc1cc(-c2cc(C(=O)Nc3cccc(C(C)=O)c3)c3ccccc3n2)cc(OC)c1OC`, the IC50 with H9c2 was > 79 µM (inactive).

`CC(C)N(CCn1c(=S)[nH]c2ccccc2c1=O)C(C)C`: the EC50 in test [1] was 9.1 µM (active).

Regarding `O=C(Cc1nnc(O)c2ccccc12)NCc1ccccn1`, the IC50 in the test on H9c2 is 35.7 µM (inactive).

With `C/C(CC(=O)NCc1ccco1)=N\NC(=O)Cc1ccc(Cl)cc1`, the AC50 on Cytochrome P450 1A2 was 20 µM (inconclusive); on Cytochrome P450 2C19 it was 22.4 µM (inconclusive); on Cytochrome P450 2C9, 25.1 µM (inconclusive); on Cytochrome P450 3A4 it was 15.8 µM (inconclusive).

Regarding `CC(C)=CCc1ccc(=O)c(O)cc1C(C)C`, the IC50 with H9c2 is > 79 µM (inactive).

Consider `NC(=O)c1ccccc1OCC(=O)NC12CC3CC(CC(C3)C1)C2`, for which the IC50 in the test with H9c2 is 36.9 µM (inactive).

As to `CC(C)(O)c1cn(-c2nonc2N)nn1`, the AC50 on Cytochrome P450 1A2 was 39.8 µM (inconclusive); at Cytochrome P450 2C19, 3.16 µM (inconclusive).

On to `COc1ccc(CN2CN=C(Nc3nc4ccccc4s3)NC2)cc1`, for which the half-maximal activity concentration (AC50) at Cytochrome P450 2C9 was 20 µM (inconclusive); at Cytochrome P450 3A4, 10 µM (inconclusive).

`COCCNc1ccnc(-c2c(C)noc2C)n1`: the half-maximal activity concentration (AC50) at Cytochrome P450 3A4 is 31.6 µM (inconclusive).

Take `O=C(c1ccc(-c2nnc(Nc3ccccc3)c3ccccc23)cc1)N1C[C@H]2C[C@H](C1)c1cccc(=O)n1C2`: the values for the AC50 on Cytochrome P450 1A2 and on Cytochrome P450 2C9 were 14.1 µM (inconclusive) and 2 µM (inconclusive), respectively.

Take `Cc1ccc(C(C(=O)NCc2ccccc2)N(Cc2cccs2)C(=O)c2ccc3c(c2)OCCO3)cc1` (configuration not stated): the IC50 with H9c2 is > 79 µM (inactive).

As to `C=CCN1CC[C@@]23c4c5ccc(O)c4O[C@H]2/C(=N\N=C2/CC[C@@]4(O)[C@H]6Cc7ccc(O)c8c7[C@@]4(CCN6CC=C)[C@@H]2O8)CC[C@]3(O)[C@@H]1C5`, the concentration at half-maximal activity (AC50) on Cytochrome P450 3A4 was 31.6 µM (inconclusive) and 25.1 µM (inconclusive).

Regarding `CC(OC(=O)Cn1[nH]c(=O)c2ccccc2c1=O)C(=O)Nc1ccc(F)cc1` (configuration not stated), the IC50 in the test on H9c2 was > 79 µM (inactive).

Take `O=C(CN(C(=O)Cn1nnc(-c2cccs2)n1)c1cnc2ccccc2c1)NCC1CCCO1` (configuration not stated): in the test on H9c2, the IC50 was 75.1 µM (inactive).

As for `COc1ccc(C2CC(C(F)(F)F)n3nc(C(=O)N(C)Cc4cn(C)nc4C)c(Cl)c3N2)cc1` (configuration not stated), the AC50 at Cytochrome P450 2C19 and at Cytochrome P450 2C9 was 17.8 µM (inconclusive) in each case.

As to `CS(=O)(=O)N1CCC[C@@]2(CCN(C(c3ccccc3)c3ccccc3)C2)C1`, the concentration at half-maximal activity (AC50) on Cytochrome P450 1A2 was 25.1 µM (inconclusive); on Cytochrome P450 2C19, 3.16 µM (inconclusive).

With `COc1cc(-c2cc(NC(C)=O)c3ncc(-c4ccc(F)cc4)n3c2)cc(OC)c1OC`, the IC50 with H9c2 was > 79 µM (inactive).

As for `C[C@@]1(C(NC(=O)Cc2ccccc2)c2ccc(-c3ccccc3)cc2)C[C@H]1C1CCCCC1` (some centres not stated), at Cytochrome P450 3A4, the concentration at half-maximal activity (AC50) was 15.8 µM (inconclusive).

`COc1ccc(-c2cc(C(=O)NC(C)c3ccccn3)c3ccccc3n2)cc1OC` (configuration not stated): in the test on H9c2, the IC50 is > 79 µM (inactive).

As for `Cc1sc2nc(SCC(=O)N3CCOCC3)nc(O)c2c1C`, the IC50 in the test on H9c2 was > 79 µM (inactive).

With `COC(=O)c1cc(OC)c(OC)cc1NC(=O)CSc1ccccc1`, the values for the half-maximal activity concentration (AC50) on Cytochrome P450 2C9 and on Cytochrome P450 3A4 were 20 µM (inconclusive) and 15.8 µM (inconclusive), respectively.

Turning to `CN(C)c1nc(N)c(C(=O)NC(=N)N)nc1Cl`, the AC50 at Cytochrome P450 3A4 was 10 µM (inconclusive).

Take `COc1ccc(-c2nc3cnc(Oc4ccccc4)nc3n(Cc3cccs3)c2=O)cc1`: at Cytochrome P450 2C9, the half-maximal activity concentration (AC50) was 1.26 µM (inconclusive).

Regarding `CC(=O)Nc1ccc(Sc2ncccc2C(=O)Nc2ccc(OC(F)(F)F)cc2)cn1`, the EC50 in test [1] was 2.96 µM (active).

Regarding `O=C(Nc1nnc(C2CC2)s1)c1ccc(S(=O)(=O)c2ccccc2)cc1`, the AC50 on Cytochrome P450 2C19 was 7.08 µM (inconclusive); on Cytochrome P450 2C9 it was 0.794 µM (inconclusive).

On to `CCCCc1nc(O)c2c3c(sc2n1)CCC3`, for which, in the test on H9c2, the IC50 is > 79 µM (inactive).

In the case of `COCCn1c(=O)c(-c2ccc(F)cc2)nc2cnc(OCc3ccccc3)nc21`, the AC50 was 10 µM (inconclusive) at Cytochrome P450 2C19, 20 µM (inconclusive) at Cytochrome P450 2C9 and 12.6 µM (inconclusive) on Cytochrome P450 3A4.

A word on the AC50: it is the concentration at which the activity in the assay is half-maximal. For orientation: IC50 means the concentration that gives 50% inhibition.
